For test [1], the system named is rat femur bone defect. The experiment in a line: Rat femur bone defect model, 3-point bending test. The note with it: post-surgery 6 weeks.
Description: (§1) For anesthesia, an intraperitoneal injection with a mixture of ketamin hydrochloride (100 mg/ml per 80 mg/kg body weight) and xylazin 2% (12 mg/kg body weight) were used. The left thigh was shaved and a 3 cm lateral longitudinal skin incision was made. The lateral approach was performed posterior to vastus lateralis without damaging the muscle. A bone defect, 0.1 cm×0.4 cm in size, on left femur was created at middle portion of shaft by using a 0.5 mm cone-shape bur. After that, the implant was inserted into the cavity and covered with […] ™ (Johnson & Johnson Medical Limited, Neuchatel, Switzerland) to fix the implant in place. Radiographs were taken to verify the correct position of the bone defect using the great trochanter as control point. At the end of operation, skin wounds were sutured. Six weeks after operation, animals were sacrificed for biomechanical and histological analysis.
The present invention employed 3-point bending test to analyze the mechanical property at the end of experiment. Counterlateral femoral bone served as a non-defect femoral bone.
Mechanical property of bone: 3-point bending test: For testing the mechanical property of the repaired femoral defect, the Instron 4466 (model 4465; Instron, Canton, Mass.) was employed for mechanical tests. The rat femur was removed from body and all the connective tissues were stripped off. For 3-point bending, the femur bone was positioned onto two supports, and a single-pronged loading device was applied to the opposite surface at a point precisely in the middle between the two supports. The distance between two supports was 4 cm. Loading force was 1N with speed of 1 mm/min. The experimental procedure involved the measurement of the deflection of the bone at the point of load application and the concurrent measurement of the load, yielding a force-deflection graph. Parameters obtained from this graph include whole-bone stiffness (defined as the slope of the early, linear portion of the load-deflection curve), yield point, maximal load and fracture load. The Young's modulus of the material from the geometry of the loading device and the stiffness of the bone were measured. The data calculations were all based on beam theory and the Hooke's law.
Test [2] deals with bone morphogenetic protein-2 (BMP-2). The note with it: 6 weeks after implantation, versus PLGA group.
Description: as §1
The 5 μm thick sections of femoral bone were incubated in 0.1% EDTA for 10 min at 100 degree for antigen retrieval. Immunohistochemistry (IHC) was performed using the Immuno Cruz Staining System (Santa Cruz). After incubating with 5% BSA/PBS (Sigma, Saint Louis, Mo., USA) blocking solution for 2 h at room temperature, sections were labeled with human-specific anti-BMP2 (dilution 1:50; Abcam) overnight at 4 degree in a humid chamber. […]
For test [3], the system named is rat femur bone defect. The note with it: 6 weeks after implantation.
Description: as §1
Femoral bone specimens were harvested for histological study 6 weeks after implantation. […] The 5-mm thick bone sections were removed and stained with hematoxylin and eosin (H&E; Santa Cruz, Santa Cruz, Calif., USA). A microscope with 10×, 100×, 400× magnification, equipped with a digital CCD camera (Eclipse 50i; Nikon Inc., Mich., USA), were used for images of the sections.
The subject of test [4] is rat femur bone defect. Briefly: Rat femur bone defect model, micro-CT trabecular bone volume. The note with it: 6 weeks after surgery; for trabecular bone volume in the femoral defect site: normalized with total defect length.
Description: For anesthesia, an intraperitoneal injection with a mixture of ketamin hydrochloride (100 mg/ml per 80 mg/kg body weight) and xylazin 2% (12 mg/kg body weight) were used. The left thigh was shaved and a 3 cm lateral longitudinal skin incision was made. The lateral approach was performed posterior to vastus lateralis without damaging the muscle. A bone defect, 0.1 cm×0.4 cm in size, on left femur was created at middle portion of shaft by using a 0.5 mm cone-shape bur. After that, the implant was inserted into the cavity and covered with […] ™ (Johnson & Johnson Medical Limited, Neuchatel, Switzerland) to fix the implant in place. Radiographs were taken to verify the correct position of the bone defect using the great trochanter as control point. At the end of operation, skin wounds were sutured.
Animals were anesthesia during micro-CT images scanning. Small animal micro-CT (Skyscan 1076, Bruker, Belgium) was employed for analyzing bone repair process in living animals and calculated by image software (CTAn) at the desired time point. The scan conditions were set at an aluminum filter of 0.5mm, 35 μm scanning resolution, x-ray voltage of 50 KV, x-ray current of 200 mA and an exposure time of 600 m-seconds. The area used for analysis began at the defect site close to femoral head and through all the defect area. Total volume indicated the inner area of cortical bone. Trabecular bone volume indicated the total trabecular bone within the total volume. Trabecular bone volume was normalized with total defect length in each rat.

For “poly(lactic-co-glycolic acid) cross-linked alendronate [PLGA-ALN]”, in the test with rat femur bone defect [1] (5 mg implant), the “Young's modulus” value is on record as 0.43±0.03 GPa, the maximal strength was 172.5±18.2 N and the total energy absorption is reported as 106.43±15.36 mm*N. In the test with rat femur bone defect [1] (10 mg implant), the “Young's modulus” value was 0.51±0.03 GPa, the maximal strength worked out at 191.7±11.7 N and the total energy absorption worked out at 110.71±9.95 mm*N. For the same substance, the “immunolocalized BMP-2 in the repaired cortical bone and trabecular bone” value in test [2] is given as “predominant”. The “cortical bone thickness and trabecular bone (H&E) versus PLGA group” value in the test on rat femur bone defect [3] is “Thicker cortical bone and more trabecular bone”. Further, in the test with rat femur bone defect [4] (5 mg implant), the “trabecular bone volume relative to the control or PLGA group” value is 2 times and the “trabecular bone volume in the femoral defect site” value is on record as 1.413±0.21. Moreover, in the test on rat femur bone defect [4] (10 mg implant), the “trabecular bone volume relative to the control or PLGA group” value is 2 times and the “trabecular bone volume in the femoral defect site” value turned out to be 1.45±0.35.

The record behind these values is patent publication US9889225B2 (KAOHSIUNG MEDICAL UNIVERSITY, priority 2010, dated 2018).
